For data set [1], the target named is Acetylcholinesterase (Electrophorus electricus) (UniProt O42275). Description: Inhibition of electric eel AChE at 3.0 uM using acetylthiocholine iodide as substrate measured from 0.5 to 1.5 mins by spectrophotometry-based Ellman's method relative to control.
For data set [2] the target is unchanged. In words: Inhibition of electric eel AChE at 0.03 uM using acetylthiocholine iodide as substrate measured from 0.5 to 1.5 mins by spectrophotometry-based Ellman's method relative to control. In general terms: Ellman's reagent forms a yellow product with free thiols.
The target of data set [3] is Cholinesterase (Equus caballus) (UniProt P81908). Description: Inhibition of equine BChE at 3.0 uM using butyrylthiocholine iodide as substrate measured from 0.5 to 1.5 mins by spectrophotometry based Ellman's method relative to control.
The target is the same in data set [4]. In words: Inhibition of equine BChE at 0.3 uM using butyrylthiocholine iodide as substrate measured from 0.5 to 1.5 mins by spectrophotometry based Ellman's method relative to control.
Data set [5] addresses Acetylcholinesterase (Electrophorus electricus) (UniProt O42275). Description: Inhibition of electric eel AChE at 0.3 uM using acetylthiocholine iodide as substrate measured from 0.5 to 1.5 mins by spectrophotometry-based Ellman's method relative to control.
In data set [6] the target is Acetylcholinesterase (Electrophorus electricus, UniProt O42275). In words: Mixed inhibition of electric eel AChE using acetylthiocholine iodide as substrate measured from 0.5 to 1.5 mins by Dixon plot analysis.
Data set [7] has as its target T1, Acetylcholinesterase (Homo sapiens, UniProt P22303). In words: Inhibition of human serum AChE using acetylthiocholine iodide as substrate preincubated for 20 mins followed by substrate addition measured for 3 mins by Ellman's method.
In data set [8] the target is T2, Cholinesterase (Homo sapiens, UniProt P06276). Description: Inhibition of human serum BChE using butyrylthiocholine iodide as substrate preincubated for 20 mins followed by substrate addition measured for 3 mins by Ellman's method.
Data set [9] concerns the target Cholinesterase (Equus caballus) (UniProt P81908). Description: Inhibition of equine BChE at 30 uM using butyrylthiocholine iodide as substrate measured from 0.5 to 1.5 mins by spectrophotometry based Ellman's method relative to control.
In data set [10] the target is Acetylcholinesterase (Electrophorus electricus) (UniProt O42275). Description: Time-dependent inhibition of electric eel AChE at 300 nM using acetylthiocholine iodide as substrate.
The nature of data set [11]: Cytotoxicity against human T67 cells assessed as effect on cell viability up to 10 uM after 24 hrs by MTT assay. The class given is cell-based.
Data set [12] concerns HeLa. Description: Cytotoxicity against human HeLa cells assessed as effect on cell viability up to 10 uM after 24 hrs by MTT assay. The class given is cell-based. For orientation: Formazan colour is commonly taken as a measure of viable cells.
The nature of data set [13]: Cytotoxicity against human T67 cells after 24 hrs by MTT assay. The class given is cell-based. The settings on record: T67, 24 h.
The subject of data set [14] is HeLa. In words: Cytotoxicity against human HeLa cells after 24 hrs by MTT assay. It is filed as cell-based.
For data set [15], the target named is T1, Acetylcholinesterase. Description: Inhibition of human serum AChE at 25 uM using acetylthiocholine iodide as substrate preincubated for 20 mins followed by substrate addition measured for 3 mins by Ellman's method.
The nature of data set [16]: Cytotoxicity against human T67 cells assessed as cell mortality at 10 uM after 24 hrs by MTT assay. The class given is cell-based.
Data set [17] deals with HeLa. In words: Cytotoxicity against human HeLa cells assessed as cell mortality at 10 uM after 24 hrs by MTT assay. The class given is cell-based.
Data set [18] addresses T2, Cholinesterase. Description: Inhibition of human serum BChE at 25 uM using butyrylthiocholine iodide as substrate preincubated for 20 mins followed by substrate addition measured for 3 mins by Ellman's method.

Structures are written as SMILES. The source made the active and inactive calls. The rule behind the calls is not given here. Where only a bound is given, the exact number is not on record here.

T1 sequence (P22303 whole entry): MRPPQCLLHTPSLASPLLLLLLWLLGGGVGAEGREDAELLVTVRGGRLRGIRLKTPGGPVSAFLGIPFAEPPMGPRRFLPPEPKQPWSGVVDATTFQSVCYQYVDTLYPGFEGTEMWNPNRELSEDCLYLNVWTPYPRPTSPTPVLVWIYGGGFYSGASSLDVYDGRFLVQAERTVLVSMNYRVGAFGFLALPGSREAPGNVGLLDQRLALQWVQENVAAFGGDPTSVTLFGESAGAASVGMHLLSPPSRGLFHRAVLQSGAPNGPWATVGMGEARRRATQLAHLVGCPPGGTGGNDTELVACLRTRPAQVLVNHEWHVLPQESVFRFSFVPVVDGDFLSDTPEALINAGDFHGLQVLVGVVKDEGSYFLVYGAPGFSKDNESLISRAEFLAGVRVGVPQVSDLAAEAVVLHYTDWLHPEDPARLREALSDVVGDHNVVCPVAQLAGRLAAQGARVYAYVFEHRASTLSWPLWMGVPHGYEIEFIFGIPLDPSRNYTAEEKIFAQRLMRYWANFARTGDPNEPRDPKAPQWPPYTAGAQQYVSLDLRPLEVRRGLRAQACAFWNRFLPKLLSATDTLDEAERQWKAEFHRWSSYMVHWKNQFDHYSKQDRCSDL
T2 sequence (P06276 whole entry): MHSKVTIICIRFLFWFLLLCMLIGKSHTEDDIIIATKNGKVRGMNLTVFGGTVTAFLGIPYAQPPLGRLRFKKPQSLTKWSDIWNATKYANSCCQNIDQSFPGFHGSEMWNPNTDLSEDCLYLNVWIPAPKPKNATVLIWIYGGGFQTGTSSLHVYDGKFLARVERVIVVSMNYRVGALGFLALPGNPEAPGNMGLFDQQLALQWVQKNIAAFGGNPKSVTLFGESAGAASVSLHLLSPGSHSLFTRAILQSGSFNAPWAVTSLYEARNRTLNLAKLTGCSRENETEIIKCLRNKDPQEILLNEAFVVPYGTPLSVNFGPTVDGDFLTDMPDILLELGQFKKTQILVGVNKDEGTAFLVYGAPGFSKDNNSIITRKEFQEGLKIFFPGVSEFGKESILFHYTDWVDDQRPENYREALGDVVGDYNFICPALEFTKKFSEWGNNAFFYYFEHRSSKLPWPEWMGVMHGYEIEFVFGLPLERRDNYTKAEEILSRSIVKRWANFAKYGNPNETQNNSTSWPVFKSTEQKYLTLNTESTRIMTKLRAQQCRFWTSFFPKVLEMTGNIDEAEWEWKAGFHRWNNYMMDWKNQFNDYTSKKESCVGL
Acetylcholinesterase (Electrophorus electricus), sequence (O42275 24-633 limits assumed): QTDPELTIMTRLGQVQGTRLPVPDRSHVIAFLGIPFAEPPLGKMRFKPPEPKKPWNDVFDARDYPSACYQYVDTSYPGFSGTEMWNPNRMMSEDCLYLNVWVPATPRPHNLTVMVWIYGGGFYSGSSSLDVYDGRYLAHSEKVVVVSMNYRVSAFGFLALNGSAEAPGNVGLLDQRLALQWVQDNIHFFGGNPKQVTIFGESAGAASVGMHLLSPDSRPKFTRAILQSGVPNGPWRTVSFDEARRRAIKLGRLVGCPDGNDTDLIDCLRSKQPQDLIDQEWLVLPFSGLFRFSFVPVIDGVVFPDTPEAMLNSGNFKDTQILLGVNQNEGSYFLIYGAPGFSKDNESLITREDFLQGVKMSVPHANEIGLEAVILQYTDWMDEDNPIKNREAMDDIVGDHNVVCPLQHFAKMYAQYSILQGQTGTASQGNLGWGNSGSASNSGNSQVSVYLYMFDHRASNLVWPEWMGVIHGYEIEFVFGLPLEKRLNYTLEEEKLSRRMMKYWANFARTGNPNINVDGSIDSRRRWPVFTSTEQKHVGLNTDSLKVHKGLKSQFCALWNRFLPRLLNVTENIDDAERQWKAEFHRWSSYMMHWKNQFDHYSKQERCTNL
Acetylcholinesterase (Electrophorus electricus, UniProt O42275), sequence (O42275 whole entry): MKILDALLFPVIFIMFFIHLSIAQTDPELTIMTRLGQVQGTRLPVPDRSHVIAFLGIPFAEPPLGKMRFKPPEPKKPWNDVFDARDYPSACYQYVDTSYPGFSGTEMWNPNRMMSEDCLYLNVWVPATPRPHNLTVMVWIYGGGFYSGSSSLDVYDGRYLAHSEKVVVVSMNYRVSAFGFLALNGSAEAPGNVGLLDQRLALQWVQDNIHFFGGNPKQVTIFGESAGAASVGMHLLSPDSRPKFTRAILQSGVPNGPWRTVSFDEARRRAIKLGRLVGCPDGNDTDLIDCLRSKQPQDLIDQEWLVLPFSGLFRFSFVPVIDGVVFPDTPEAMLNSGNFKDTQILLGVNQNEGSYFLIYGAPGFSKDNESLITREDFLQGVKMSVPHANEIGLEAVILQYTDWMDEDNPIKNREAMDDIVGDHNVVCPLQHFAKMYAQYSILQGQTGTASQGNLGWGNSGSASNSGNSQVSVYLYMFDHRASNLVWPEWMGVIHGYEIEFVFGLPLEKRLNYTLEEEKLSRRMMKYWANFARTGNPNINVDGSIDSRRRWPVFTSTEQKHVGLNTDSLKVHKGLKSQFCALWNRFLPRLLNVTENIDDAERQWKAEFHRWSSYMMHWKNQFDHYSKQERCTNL
Cholinesterase (Equus caballus), sequence (P81908 whole entry): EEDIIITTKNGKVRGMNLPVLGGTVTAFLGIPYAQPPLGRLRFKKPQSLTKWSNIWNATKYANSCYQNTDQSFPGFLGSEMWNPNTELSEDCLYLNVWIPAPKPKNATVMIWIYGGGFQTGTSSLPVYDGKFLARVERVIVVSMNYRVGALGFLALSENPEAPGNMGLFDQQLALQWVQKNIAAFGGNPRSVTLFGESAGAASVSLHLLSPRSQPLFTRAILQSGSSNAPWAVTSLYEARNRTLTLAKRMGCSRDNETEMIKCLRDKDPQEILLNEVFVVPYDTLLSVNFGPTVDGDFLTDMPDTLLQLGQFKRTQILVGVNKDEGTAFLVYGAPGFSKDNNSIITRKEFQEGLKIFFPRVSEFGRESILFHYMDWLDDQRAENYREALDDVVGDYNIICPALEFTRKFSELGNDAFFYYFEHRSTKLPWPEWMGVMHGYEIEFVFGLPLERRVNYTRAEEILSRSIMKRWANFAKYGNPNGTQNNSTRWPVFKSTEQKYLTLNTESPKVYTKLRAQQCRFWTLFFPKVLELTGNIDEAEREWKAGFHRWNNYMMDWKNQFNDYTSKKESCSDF

One may read the inhibition as the change of the read-out against control, counted positive when it falls. As usually defined, the Ki is a measure of affinity in units of concentration, obtained from inhibition or displacement. As a reminder, the IC50 is the midpoint of a concentration-inhibition curve. Take `O=C(NCCCCCCNCc1c[nH]c2ccccc12)c1cc(Cl)nc(Cl)c1`: the inhibition in data set [1] worked out at 92%; in data set [2], 15%; in data set [3], 64%; in [4], 13%; in data set [5], 55%. The Ki at Acetylcholinesterase [6] is 0.205 µM. Also, the IC50 turned out to be 8.85 µM against Acetylcholinesterase [7] and 4.7 µM at Cholinesterase [8].

With `O=C(NCCCCCCNCc1ccc2ccccc2c1)c1cc(Cl)nc(Cl)c1`, the inhibition in data set [1] was found to be 15%; in data set [3] it was 46%. Also, the inhibition entry in data set [5] was “inactive”. In addition, the results for the IC50 against Acetylcholinesterase [7] and against Cholinesterase [8] were 99.7 µM and 9.96 µM, respectively.

With `O=C(Nc1cc(Cl)nc(Cl)c1)OCCCCCNCc1ccccc1`, the inhibition in data set [1] is 99%; in data set [2], 65%; in [9] it was 95%; in data set [4], 17%; in data set [5], 91%. Besides, in [10], the TDI result was “inactive”. The same compound came in with a Ki at Acetylcholinesterase [6] of 0.0386 µM. Moreover, the IC50 on Acetylcholinesterase [7] turned out to be 0.153 µM; on Cholinesterase [8], 4.59 µM; in [13], 24.1 µM; with HeLa [14] it was 20.8 µM. Further, the Activity entry (in [11]; in the data set on HeLa [12]) was “Non-Toxic” in each case.

Turning to `COc1ccccc1CNCCCCCCNC(=O)c1cc(Cl)nc(Cl)c1`, the inhibition in data set [1] amounted to 90%; in data set [2] it was 14%; in data set [3], 54%; in data set [4] it was 6%; in [5], 49%. For the same compound, the inhibition constant Ki on Acetylcholinesterase [6] was 0.355 µM. Besides, the IC50 against Acetylcholinesterase [7] was 8.3 µM; on Cholinesterase [8], 45.5 µM.

Consider `O=C(Nc1cc(Cl)nc(Cl)c1)OCCCCCNCc1ccc(Oc2ccccc2)cc1`, for which the inhibition in [1] was 24%; in data set [3], 60%; in data set [5] it was less than 5%; against Acetylcholinesterase [15], less than 20%. For the same compound, the TDI entry in [10] is “inactive”. This compound showed an IC50 against Cholinesterase [8] of 8.41 µM.

For the compound `COc1ccccc1CNCCCCCOC(=O)Nc1cc(Cl)nc(Cl)c1`, the inhibition in data set [1] is 89%; in [2] it was 10%; in data set [3] it was 49%; in data set [4], less than 5%; in [5], 50%. In addition, in [10], the TDI result was “inactive”. The compound also showed a Ki on Acetylcholinesterase [6] of 0.288 µM. In addition, the IC50 stood at 6.16 µM against Acetylcholinesterase [7] and 4.02 µM against Cholinesterase [8].

Turning to `O=C(Nc1ccncc1Br)OCCCCCNCc1ccccc1`, the inhibition in data set [1] is 90%; in data set [2], 20%; in data set [3], 57%; in data set [4], less than 5%; in data set [5], 55%. For the same compound, the TDI result in [10] was “inactive”. The same compound came in with a Ki on Acetylcholinesterase [6] of 0.404 µM. In addition, the IC50 against Acetylcholinesterase [7] turned out to be 4.04 µM; against Cholinesterase [8] it was 5.27 µM.

In the case of `O=C(Nc1cc(Cl)nc(Cl)c1)OCCCCCNCc1c[nH]c2ccccc12`, the inhibition is 97% in data set [1]; 24% in data set [2]; 57% in [3]; 8% in data set [4]; 76% in data set [5]. Moreover, the TDI result in data set [10] was “inactive”. The compound further returned a Ki on Acetylcholinesterase [6] of 0.157 µM. Further, the IC50 came to 0.648 µM on Acetylcholinesterase [7], 0.828 µM at Cholinesterase [8], 5.8 µM in data set [13] and 6.7 µM in the data set with HeLa [14]. Also, the Activity (in data set [16]; in the data set on HeLa [17]) was 50% each time.

`O=C(NCCCCCCNCc1ccc(Oc2ccccc2)cc1)c1cc(Cl)nc(Cl)c1`: the inhibition in data set [1] was 16%; in data set [3], 18%; at Acetylcholinesterase [15], less than 20%; on Cholinesterase [18] it was less than 20%. Also, in [5], the inhibition result is “inactive”.

Regarding `O=C(Nc1cc(Cl)nc(Cl)c1)OCCCCCCNCc1ccccc1`, the inhibition was determined as 91% in data set [1]; 33% in data set [2]; 89% in data set [9]; 12% in data set [4]; 72% in [5]. In addition, the TDI entry in [10] is “inactive”. In addition, at Acetylcholinesterase [6], the affinity corresponds to a Ki of 0.259 µM. The IC50 at Acetylcholinesterase [7] amounted to 0.759 µM; on Cholinesterase [8], 4.01 µM; in data set [13] it was 13.2 µM; in the data set on HeLa [14] it was 12.5 µM. Also, the Activity (in [16]; with HeLa [17]) was 25% each time.

With `O=C(NCCCCCCNCc1ccccc1)c1cc(Cl)nc(Cl)c1`, the inhibition in [1] was determined as 95%; in [2] it was 18%; in data set [3] it was 73%; in [4], 17%; in [5], 71%. Further, at Acetylcholinesterase [6], the Ki was determined as 0.0528 µM. In addition, the half-maximal inhibitory concentration (IC50) at Acetylcholinesterase [7] turned out to be 3.17 µM; against Cholinesterase [8], 25.8 µM.

For the origin of these results see ChEMBL document CHEMBL4130500, “New pyridine derivatives as inhibitors of acetylcholinesterase and amyloid aggregation” (Eur J Med Chem, 2017).
